Source: ChEMBL document CHEMBL1154074, “3D-QSAR with the aid of pharmacophore search and docking-based alignments for farnesyltransferase inhibitors” (Eur J Med Chem, 2009)

Assay: Inhibition of FTase

| pIC50 | Compound |
| --- | --- |
| 9.02 | N#Cc1ccc(COCc2cncn2Cc2ccc(C#N)cc2-c2cccc3ccccc23)cc1 |
| 9.31 | N#Cc1ccc(Cn2cncc2COCc2ccc(C#N)cc2-c2cccc(OC(F)(F)F)c2)cc1 |
| 9.22 | Cc1ccc(-c2cc(C#N)ccc2COCc2cncn2Cc2ccc(C#N)cc2)cc1C |
| 8.37 | N#Cc1ccc(Cn2cncc2COCc2ccc(C#N)cc2-c2ccc(C(F)(F)F)cc2)cc1 |
| 8.4 | N#Cc1ccc(Cn2cncc2COc2ccc(Cl)cc2-c2cccc(Cl)c2)cc1 |
| 8.08 | N#Cc1ccc(COCc2cncn2Cc2ccc(Cl)cc2)c(-c2ccc3c(c2)OCO3)c1 |
| 9.24 | CCOc1cccc(-c2cc(C#N)ccc2COCc2cncn2Cc2ccc(C#N)nc2)c1 |
| 8.19 | N#Cc1ccc(Cn2cncc2CNCc2ccc(C#N)c(-c3cccc4ccccc34)c2)cc1 |
| 9.36 | CC(C)(C)c1ccc(-c2cc(C#N)ccc2COCc2cncn2Cc2ccc(C#N)cc2)cc1 |
| 8.52 | N#Cc1ccc(COCc2cncn2Cc2ccc(C#N)nc2)c(-c2ccc3c(c2)OCO3)c1 |
| 9.04 | N#Cc1ccc(Cn2cncc2COCc2ccc(C#N)cc2-c2ccc3ccccc3c2)cc1 |
| 8.9 | CCOc1ccc(-c2cc(C#N)ccc2COCc2cncn2Cc2ccc(C#N)cc2)cc1 |
| 9.05 | N#Cc1ccc(OCc2cncn2Cc2ccc(C#N)c(-c3cccc4ccccc34)c2)nc1 |
| 8.12 | COc1ccc(-c2cc(C#N)ccc2COCc2cncn2Cc2ccc(C#N)cc2)cn1 |
| 8.52 | N#Cc1ccc(COCc2cncn2Cc2ccc(C#N)nc2)c(-c2cccc(Cl)c2)c1 |
| 8.36 | COc1cccc(-c2cc(C#N)ccc2COCc2cncn2Cc2ccc(C#N)cn2)c1 |
| 9.49 | N#Cc1ccc(OCc2cncn2Cc2ccc(C#N)c(-c3cccc4ccccc34)c2)cc1 |
| 8.32 | N#Cc1ccc(Cn2cncc2COCc2ccc(C#N)c(-c3cccc4ccccc34)c2)cc1 |
| 8.82 | COc1cccc(-c2cc(C#N)ccc2COCc2cncn2Cc2ccc(C#N)nc2)c1 |
| 9.43 | N#Cc1ccc(Cn2cncc2COCc2ccc(C#N)cc2-c2cccc(Cl)c2)cc1 |
| 9.21 | N#Cc1ccc(Cn2cncc2COCc2ccc(Cl)cc2-c2cccc(Cl)c2)cc1 |
| 8.33 | N#Cc1ccc(Cn2cncc2COCc2ccc(C#N)cc2-c2ccc3c(c2)OCO3)nc1 |

| pIC50 | Compound |
| --- | --- |
| 9.42 | N#Cc1ccc(Cn2cncc2COc2ccc(C#N)c(-c3cccc4ccccc34)c2)cc1 |
| 7.02 | CS(=O)(=O)c1ccc(Cn2cncc2COCc2ccc(C#N)cc2-c2cccc(Cl)c2)cc1 |
| 8 | N#Cc1ccc(COCc2cncn2Cc2ccc(C#N)cc2-c2cccc(Cl)c2)c(-c2cccc(Cl)c2)c1 |
| 9.43 | N#Cc1ccc(Cn2cncc2COCc2ccc(C#N)cc2-c2ccc(Cl)c(Cl)c2)cc1 |
| 8.37 | N#Cc1ccc(Cn2cncc2COCc2cnc(C#N)cc2-c2cccc(Cl)c2)cc1 |
| 8.21 | N#Cc1cn(Cc2cncn2Cc2ccc3c(c2)OCO3)cc1-c1cccc2ccccc12 |
| 8.42 | Cn1c(=O)cc(-c2cccc(Cl)c2)c2cc(C(N)c3cncn3Cc3ccc(C#N)cc3)ccc21 (centres undefined) |
| 7.54 | Cn1c(=O)cc(-c2cccc(Cl)c2)c2cc(C(=O)c3cncn3Cc3ccc(C#N)cc3)ccc21 |
| 7.05 | Cn1c(=O)cc(-c2cccc(Cl)c2)c2cc(COCc3cncn3Cc3ccc(C#N)cc3)ccc21 |
| 8.77 | N#Cc1ccc(Cn2cncc2COCc2ccc(C#N)cc2-c2cccc(Cl)c2)nc1 |
| 8.89 | N#Cc1ccc(Cn2cncc2COCc2ccc(C#N)cc2-c2cccc3ccccc23)cc1 |
| 8.85 | CCOc1cccc(-c2cc(C#N)ccc2COCc2cncn2Cc2ccc(Cl)cc2)c1 |
| 9.19 | N#Cc1ccc(Cn2cncc2COCc2ccc(C#N)cc2-c2ccc(OC(F)(F)F)cc2)cc1 |
| 9.09 | N#Cc1ccc(Cn2cncc2COCc2ccc(C#N)cc2-c2cccc3c2OCO3)cc1 |
| 8.17 | N#Cc1ccc(COCc2cncn2Cc2ccc(C#N)cc2-c2cccc3ccccc23)c(-c2ccc3c(c2)OCO3)c1 |
| 8.89 | CC(=O)c1ccc(-c2cc(C#N)ccc2COCc2cncn2Cc2ccc(C#N)cc2)cc1 |
| 8.68 | Cn1c(=O)cc(-c2cccc(Cl)c2)c2cc(C(NC=O)c3cncn3Cc3ccc(C#N)cc3)ccc21 (centres undefined) |
| 8.66 | COc1cccc(-c2cc(C#N)ccc2COCc2cncn2Cc2ccc(Cl)cc2)c1 |
| 7.33 | Cn1c(=O)cc(-c2cccc(Cl)c2)c2cc(C(O)c3cncn3Cc3ccc(C#N)cc3)ccc21 (centres undefined) |
| 9.24 | N#Cc1ccc(Cn2cncc2Cn2cc(C#N)c(-c3cccc4ccccc34)c2)cc1 |
| 7.89 | CC(=O)Nc1cccc(-c2cc(C#N)ccc2COCc2cncn2Cc2ccc(C#N)cc2)c1 |
| 9.82 | N#Cc1ccc(Cn2cncc2Cn2ccc3c(C#N)c(-c4cccc5ccccc45)ccc32)cc1 |
